Here are results for 15 molecules from patent publication US4493843A, “Indole and indoline carboxylic acid compounds and method of use” (May & Baker Limited, priority 1980, dated 1985).

This assay concerns serum cholesterol and serum triglycerides. Put plainly: Hypolipidaemic activity in rats (compound in diet, last 7 of 10 days). Type of assay: in vivo, Male Wistar rats. The note with it: Rattus norvegicus, po, 168 h, 7 days; for change in vivo at 0.2 % strength: 0.2 % w/w dose in diet; for change in vivo at 0.1 % strength: 0.1 % w/w dose in diet; for change in vivo at 0.03 % strength: 0.03 % w/w dose in diet. As for the experimental part:
Hypolipidaemic Activity in Rats
Male Wistar rats each weighing between 120 and 150 g were caged in groups of eight and fed a powdered diet for 10 days. For the last 7 days of that period the test compound was administered orally by mixing the compound in the diet and allowing the animals to feed normally. Food consumption was measured on day 9 for each group.
At noon on day 10 the animals were killed by inhalation of carbon dioxide from solid carbon dioxide. A sample of blood was removed by cardiac puncture and the serum cholesterol and serum triglycerides were analysed by means of an autoanalyser.
Control groups (receiving only the normal, unmedicated diet) were included with each test.
The percentage reductions in the concentrations of serum cholesterol and serum triglycerides were calculated by comparison with the simultaneous controls, for each concentration of the test compound used.

Where [1] appears, read: read-out: % change in serum cholesterol compared with control.
The mark [2] stands for this setting: read-out: % change in serum triglycerides compared with control.

Where a name gives a salt, the structure may show the parent alone. Read-outs that look alike come from different tables or passages of the source.

Consider `CCCCCCCCCCCCCCCc1cc2c(C(=O)OCCCC)cccc2[nH]1` [Compound MM, n-butyl 2-(n-pentadecyl)indole-4-carboxylate], for which the change in vivo at 0.2 % strength reads like this: under setting [1], 25%; under setting [2], -41%.
On the same counts, the results for `CCCCCCCCCCCC1Cc2ccc(C(=O)O)cc2N1C` (racemic) [Compound BII, (RS)-1-methyl-2-(n-undecyl)indoline-6-carboxylic acid] are 0% and -30%.
On the same counts, the results for `CCCCCCCCCCCCCCCCCCc1c[nH]c2cc(C(=O)O)ccc12` [Compound BGG, 3-(n-octadecyl)indole-6-carboxylic acid] are -7% and -7%.
Turning to `CCCCCCCCCCCCCCCc1cc2ccc(C(=O)O)cc2[nH]1` [D sodium salt], the change in vivo at 0.1 % strength by setting is: under setting [1], -10%; under setting [2], -18%.
For the molecule `CCCCCCCCCCCc1cc2ccc(C(=O)OCCCC)cc2[nH]1` [Compound GG, n-butyl 2-(n-undecyl)indole-6-carboxylate], the change in vivo at 0.2 % strength is -11% under setting [1] and -35% under setting [2].
In the case of `CCCCCCCCCCCC1Cc2cc(C(=O)O)ccc2N1` (racemic) [Compound YY, (RS)-2-(n-undecyl)indoline-5-carboxylic acid], under setting [1], the change in vivo at 0.03 % strength was -25%, the change in vivo at 0.1 % strength is -21% and the change in vivo at 0.2 % strength is -32%. In addition, under setting [2], the change in vivo at 0.03 % strength was -51%, the change in vivo at 0.1 % strength was -65% and the change in vivo at 0.2 % strength is -64%.
On to `CCCCCCCCc1cc2ccc(C(=O)O)cc2[nH]1` [Compound P, 2-(n-octyl)indole-6-carboxylic acid], for which the change in vivo at 0.2 % strength by setting is: under setting [1], -32%; under setting [2], -37%.
On the same counts, the results for `CCCCCCCCCCCCCCCc1cc2cccc(C(=O)O)c2[nH]1` [Compound I, 2-(n-pentadecyl)indole-7-carboxylic acid] are -26% and -33%.
The matching figures for `CCCCCCCCCCCCCCCCC1CNc2cc(C(=O)OC)ccc21` (racemic) [Compound CFF, (RS)-methyl 3-(n-hexadecyl)indoline-6-carboxylate]: 6% and 10%.
On the same counts, the results for `CCCCCCCCCCCCCCCCCCCCc1cc2ccc(C(=O)O)cc2[nH]1` [Compound UU, 2-(n-eicosyl)indole-6-carboxylic acid] are -15% and -29%.
In the case of `CCCCCCCCCCCCCCCCC1CNc2ccc(C(=O)OC)cc21` (racemic) [Compound BNN, (RS)-methyl 3-(n-hexadecyl)indoline-5-carboxylate], the change in vivo at 0.2 % strength is, setting by setting: under setting [1], 7%; under setting [2], -20%.
With `CCCCCCCCCCCCCCCCCCc1cc2ccc(C(=O)O)cc2[nH]1` [Compound V, 2-(n-octadecyl)indole-6-carboxylic acid], the change in vivo at 0.2 % strength reads like this: under setting [1], 3%; under setting [2], -1%.
In the case of `CCCCCCCCCCCCCCc1cc2ccc(C(=O)O)cc2[nH]1` [Compound SS, 2-(n-tetradecyl)indole-6-carboxylic acid], the change in vivo at 0.2 % strength reads like this: under setting [1], -14%; under setting [2], 3%.
The matching figures for `CCCCCCCCCCCCCCCC1Cc2cc(C(=O)O)ccc2N1` (racemic) [Compound AAA, (RS)-2-(n-pentadecyl)indoline-5-carboxylic acid]: -12% and -55%.
Take `CCCCCCCCCCCCCCCc1cc2cc(C(=O)OC)ccc2[nH]1` [Compound LL, methyl 2-(n-pentadecyl)indole-5-carboxylate]: under setting [1], the change in vivo at 0.1 % strength was -13% and the change in vivo at 0.2 % strength was -16%. Besides, under setting [2], the change in vivo at 0.1 % strength was -32% and the change in vivo at 0.2 % strength is -22%.
